The nature of this data set: Stability and protonation constants of Zn^II complexes (pH-potentiometry). The note with it: 25°C, 0.15 M NaCl. The format is physicochemical. From the text: For determining the protonation constants of DOTPI(Chx)4 and DOTPI three parallel pH-potentiometric titration were made with 0.2 M NaOH in 0.002 M ligand solutions. The stability and protonation constants of the Ca^II and Zn^II complexes formed with DOTPI(Chx)4 and DOTPI ligands have been determined by direct pH-potentiometric titration made at 1:1 and 2:1 metal to ligand concentration ratios. (the concentration of ligands was 0.002 M). For the calculation of the logKML and logKMLHi values, the mL base—pH data used were obtained in the pH range 1.7–12.0.
For pH measurements and titrations, a Metrohm 785 DMP Titrino titration workstation and a Metrohm-6.0233.100 combined electrode were used. Equilibrium measurements were carried out at a constant ionic strength (0.15 M NaCl) in 6 mL samples at 25°C. The solutions were stirred, and constantly purged with N2. The titrations were performed in a pH range of 1.7–11.7. KH-phthalate (pH = 4.005) and borax (pH = 9.177) buffers were used to calibrate the pH meter. For calculation of [H^+] from measured pH values, the method proposed by Irving et al. was used (Irving et al., [1967]). A 0.01 M HCl solution was titrated with the standardized NaOH solution in the presence of 0.1 M NaCl. Differences between the measured (pHread) and calculated pH (–log[H^+]) values were used to obtain the equilibrium H^+ concentration from the pH values, measured in the titration experiments. For the equilibrium calculations, the stoichiometric water ionic product (pKw) is also needed to calculate [H^+] values in basic conditions. The VNaOH – pHread data pairs of the HCl – NaOH titration obtained in the pH range 10.5–12 have been used to calculate the pKw value (pKw = 13.85). For the calculation of the equilibrium constants the program PSEQUAD (Zekany and Nagypal, [1985]) was used.
2. Protonation and complexation equilibria of DOTPI and
The protonation processes of the DOTPI and DOTPI(Chx)4, ligands have been studied by pH-potentiometry. The protonation constants (logKiH) of ligands are defined according to Eq. (1).
The stability and protonation constants of DOTPI and DOTPI(Chx)4 complexes with several metal ions were determined by pH-potentiometric and UV/Vis spectrophotometric, methods.
The stability and protonation constants of the metal complexes formed with the DOTPI and DOTPI(Chx)4, ligands, defined by Eqs. […]
where i = 1, 2, 3…5. The KML and KMHiL values characterizing the formation of DOTPI and DOTPI(Chx)4 complexes of CaII and ZnII have been calculated from the pH-potentiometric titration data obtained at 1:1 metal to ligand concentration ratios. The protonation constants of the complexes Cu(DOTPI) and Cu(DOTPI( Chx)4) were also determined by pH-potentiometric titrations, made at 1:1 metal to ligand concentration ratio. The pH-potentiometric titrations of DOTPI ligand were also performed at 2:1 metal-to-ligand ratio in order to examine the possible formation of dinuclear CaII-, ZnII-, and CuII-DOTPI complexes.
The stability and protonation constants of the dinuclear complexes formed with the DOTPI […]
where i=1 and 2. In calculating the equilibrium constants, the best fit of the mL base – pH data was obtained by assuming the formation of ML, MHL, MH 2L, MH3L, MH4L, MH5L, M2L, M2LH, and M2LH2 complexes with DOTPI and DOTPI(Chx)4.
(also on this page, place not known: ]H][LH[ ]LH[K 1i iH + − = DOTPI( Chx)4 f ormed ]L][M[ ]ML[K ML = ]H][LMH[ ]LMH[K 1i i LMHi + − = i 3 …5. Ca II Zn II -potentiometric pH - metal -to-ligand Cu II-DOTPI ]M][ML[ ]LM[K 2 LM2 = ]H][LHM[ ]LHM[K 1i2 i2 LHM i2 + − = pH MH 4L,) […]

For `O=C(O)CCP(=O)(O)CN1CCN(CP(=O)(O)CCC(=O)O)CCN(CP(=O)(O)CCC(=O)O)CCN(CP(=O)(O)CCC(=O)O)CC1` [DOTPI, 1,4,7,10-tetraazacyclododecane-1,4,7,10-tetrakis[methylene(2-carboxyethylphosphinic acid)]], the “protonation constant Zn2LH” value is recorded as 5.02 (5), the “protonation constant Zn2LH2” value was 4.87 (4), the “protonation constant ZnH2L” value is 5.15 (3) and the “protonation constant ZnH3L” value is 4.40 (4). The “protonation constant ZnH4L” value is recorded as 4.42 (1), the “protonation constant ZnHL” value is given as 5.65 (3) and the “stability constant of dinuclear complex Zn2L” value is 3.78 (4).

(Values after paper PMC5902495, “Synthesis of Symmetrical Tetrameric Conjugates of the Radiolanthanide Chelator DOTPI for Application in Endoradiotherapy by Means of Click Chemistry” (Frontiers in Chemistry, 2018).)
